Results as given in paper PMC2858699, “Proteolysis of Human Thrombin Generates Novel Host Defense Peptides” (PLoS Pathogens, 2010).
≈ marks a conversion by molar mass, not a printed value. Where a SMILES comes first, the peptide text is derived from it.

Columns and labels:
P. aeruginosa ATCC 27853 = format: cell-based
Protocol: (§1) MIC assay was carried out by a microtiter broth dilution method as previously described in the NCSLA guidelines. Hemolysis, MTT, and LDH assays were performed as previously described (See Text S1).
(§2) MIC assay was carried out by a microtiter broth dilution method as previously described in the NCSLA guidelines (Wiegand, I., Hilpert, K. & Hancock, R.E. Agar and broth dilution methods to determine the minimal inhibitory concentration (MIC) of antimicrobial substances. Nat Protoc 3, 163-175 (2008)). In brief, fresh overnight colonies were suspended to a turbidity of 0.5 units and further diluted in Mueller-Hinton broth (Becton Dickinson). […] Ten µl of each concentration was added to each corresponding well of a 96-well microtiter plate (polypropylene, Costar Corp.) and 90 µl of bacteria (1x10^5) in MH medium added. The plate was incubated at 37 °C for 16-18 h. MIC was taken as the lowest concentration where no visual growth of bacteria was detected.
(§3) Table S2. […] The analysis was performed as described in Wiegand et al. and according to NCSLA guidelines. Additional clinical isolates were obtained from the Department of Bacteriology, Lund University Hospital. P. aeruginosa, E. coli and E. faecalis isolates were initially derived from patients with chronic ulcers, S. aureus from patients with atopic dermatitis. The S. pyogenes strain AP1 was from the WHO Collaborating Center for References and Research on Streptococci (Prague, Czech Republic).

[1] = system: P. aeruginosa Clinical isolate 18488; format: cell-based
Protocol: as §1, §2, §3

[2] = system: S. aureus Clinical isolate 18800; format: cell-based
Protocol: as §1, §2, §3

S. pyogenes AP1 = format: cell-based
Protocol: as §1, §2, §3

[3] = system: S. aureus Clinical isolate 16065; format: cell-based
Protocol: as §1, §2, §3

[4] = system: S. aureus Clinical isolate 1090; format: cell-based
Protocol: as §1, §2, §3

[5] = system: S. aureus Clinical isolate 18319; format: cell-based
Protocol: as §1, §2, §3

[6] = system: P. aeruginosa Clinical isolate 23.1; format: cell-based
Protocol: as §1, §2, §3

[7] = system: E. coli Clinical isolate 37.4; format: cell-based
Protocol: as §1, §2, §3

[8] = system: S. aureus Clinical isolate 14312; format: cell-based
Protocol: as §1, §2, §3

[9] = system: P. aeruginosa Clinical isolate 13.2; format: cell-based
Protocol: as §1, §2, §3

[10] = system: P. aeruginosa Clinical isolate 15159; format: cell-based
Protocol: as §1, §2, §3

[11] = system: E. coli Clinical isolate 49.1; format: cell-based
Protocol: as §1, §2, §3

[12] = system: P. aeruginosa Clinical isolate 10.5; format: cell-based
Protocol: as §1, §2, §3

[13] = system: E. faecalis Clinical isolate 2374; format: cell-based
Protocol: as §1, §2, §3

[14] = system: S. aureus Clinical isolate 1088; format: cell-based
Protocol: as §1, §2, §3

[15] = system: P. aeruginosa Clinical isolate 51.1; format: cell-based
Protocol: as §1, §2, §3

S. aureus ATCC 29213 = format: cell-based
Protocol: as §1, §2, §3

S. aureus FDA 486 = format: cell-based
Protocol: as §1, §2, §3

[16] = system: S. aureus Clinical isolate 13430; format: cell-based
Protocol: as §1, §2, §3

[17] = system: P. aeruginosa Clinical isolate 27.1; format: cell-based
Protocol: as §1, §2, §3

[18] = system: P. aeruginosa Clinical isolate 62.1; format: cell-based
Protocol: as §1, §2, §3

E. coli ATCC 25922 [19] = format: cell-based
Protocol: as §1, §2, §3

[20] = system: E. coli Clinical isolate 47.1; format: cell-based
Protocol: as §1, §2, §3

[21] = system: S. aureus Clinical isolate 1086; format: cell-based
Protocol: as §1, §2, §3

E. coli ATCC 25922 [22] = assay: Viable count assay; format: cell-based; details: E. coli ATCC 25922 2×10^6 cfu/ml, 50 µl, 10 mM Tris pH 7.4 with 5 mM glucose, 37°C 2 h; 3 and 6 µM
Protocol: 2×10^6 cfu/ml of bacteria were incubated in 50 µl with proteins and peptides at a concentration of 3 and 6 µM, respectively.
E. coli ATCC 25922 bacteria were grown to mid-logarithmic phase in Todd-Hewitt (TH) medium. Bacteria were washed and re-suspended in 10 mM Tris, pH 7.4 containing 5 mM glucose. […] Serial dilutions of the incubation mixtures were plated on TH agar, followed by incubation at 37°C overnight and cfu determination.

[23] = Liposome leakage assay (carboxyfluorescein release)
Protocol: (E) Effects of the indicated peptides on liposome leakage. The membrane permeabilizing effect was recorded by measuring fluorescence release of carboxyfluorescein from PA (negatively charged) liposomes. The experiments were performed in 10 mM Tris-buffer, in absence and presence of 0.15 M NaCl. Values represents mean of triplicate samples.
Dry lipid films were prepared by dissolving either dioleoylphosphatidylethanolamine (Avanti Polar Lipids, Alabaster, AL) (70 mol%) and dioleoylphosphatidylglycerol (30 mol%) in chloroform, and then removing the solvent by evaporation under vacuum overnight. Subsequently, buffer solution containing 10 mM Tris, pH 7.4, either with or without additional 150 mM NaCl, was added together with 0.1 M carboxyfluorescein (CF) (Sigma). After hydration, the lipid mixture was subjected to eight freeze-thaw cycles consisting of freezing in liquid nitrogen and heating to 60°C. Unilamellar liposomes with a diameter of about 130 nm (as found with cryo-TEM; results not shown) were generated by multiple extrusions through polycarbonate filters (pore size 100 nm) mounted in a LipoFast miniextruder (Avestin). Untrapped carboxyfluorescein was then removed by filtration through two subsequent Sephadex G-50 columns with the relevant Tris buffer as eluent. […] The CF release was monitored by fluorescence at 520 nm from a liposome dispersion (10 mM lipid in 10 mM Tris pH 7.4). […]

E. coli = assay: Radial diffusion assay (RDA), low-salt conditions; format: cell-based; details: 6 µl per well (3.6 µg protein), not digested with neutrophil elastase
Protocol: Figure 1 Generation of antimicrobial peptides by degradation of prothrombin and thrombin. (A) Degradation of the proteins was performed at 37°C for the indicated time periods. RDA was performed in low-salt conditions using E. coli as test organism. Each 4 mm-diameter well was loaded with 6 µl of the solution (corresponding to 3.6 µg protein). The bar diagrams indicate the diameter of the zones of clearance obtained (in mm). The inset visualizes the results obtained with prothrombin. C, buffer; NE, neutrophil elastase only. LL-37 (100 µM) was included for comparison. (B) Intact prothrombin (PT) and thrombin (T), and cleavage products from the different incubations with neutrophil elastase (NE, indicated above) were analyzed by SDS-PAGE (16.5% Tris-Tricine gel). The gels are overloaded (12 µg) in order to visualize generation of fragments of low molecular masses. Rightmost two lanes show PT and T proteins at 2 µg.
Figure 2 Activities of peptides derived from prothrombin. (A) Sequence of prothrombin and overlapping peptides (indicated by numbers). In addition to the regular overlapping peptides, peptide regions of high net charge, and/or content of predicted helical regions (Agadir; http://www.embl-heidelberg.de/Services/serrano/agadir/agadir-start.html) were selected. […] (B) Overlapping peptides of prothrombin were analyzed for antimicrobial activities against E. coli. […]

CC[C@H](C)[C@H](N)C(=O)N[C@@H](CC(C)C)C(=O)N[C@@H](CCCNC(=N)N)C(=O)N[C@@H](Cc1c[nH]c2ccccc12)C(=O)N1CCC[C@H]1C(=O)N[C@@H](Cc1c[nH]c2ccccc12)C(=O)N[C@@H](Cc1c[nH]c2ccccc12)C(=O)N1CCC[C@H]1C(=O)N[C@@H](Cc1c[nH]c2ccccc12)C(=O)N[C@@H](CCCNC(=N)N)C(=O)N[C@@H](CCCNC(=N)N)C(=O)N[C@@H](CCCCN)C(N)=O [Omiganan] (H-ILRWPWWPWRRK-NH2)
MIC (P. aeruginosa ATCC 27853): 160 µM (≈ 285 µg/mL)
MIC [1]: 20 µM (≈ 35.6 µg/mL)
MIC [2]: 2.5 µM (≈ 4.45 µg/mL)
MIC (S. pyogenes AP1): 5 µM (≈ 8.9 µg/mL)
MIC [3]: 5 µM (≈ 8.9 µg/mL)
MIC [4]: 80 µM (≈ 142 µg/mL)
MIC [5]: 20 µM (≈ 35.6 µg/mL)
MIC [6]: 40 µM (≈ 71.2 µg/mL)
MIC [7]: 20 µM (≈ 35.6 µg/mL)
MIC [8]: 20 µM (≈ 35.6 µg/mL)
MIC [9]: 40 µM (≈ 71.2 µg/mL)
MIC [10]: 20 µM (≈ 35.6 µg/mL)
MIC [11]: 10 µM (≈ 17.8 µg/mL)
MIC [12]: 40 µM (≈ 71.2 µg/mL)
MIC [13]: 160 µM (≈ 285 µg/mL)
MIC [14]: 20 µM (≈ 35.6 µg/mL)
MIC [15]: 80 µM (≈ 142 µg/mL)
MIC (S. aureus ATCC 29213): 10 µM (≈ 17.8 µg/mL)
MIC (S. aureus FDA 486): 20 µM (≈ 35.6 µg/mL)
MIC [16]: 10 µM (≈ 17.8 µg/mL)
MIC [17]: >160 µM
MIC [18]: 20 µM (≈ 35.6 µg/mL)
MIC (E. coli ATCC 25922 [19]): 20 µM (≈ 35.6 µg/mL)
MIC [20]: 20 µM (≈ 35.6 µg/mL)
MIC [21]: 10 µM (≈ 17.8 µg/mL)

VFRLKKWIQKVIDQFGE [VFR17]
antibacterial activity in viable count assay (E. coli ATCC 25922 [22]): significant antibacterial activity
leakage of liposomes (carboxyfluorescein release) ([23]; negatively charged liposomes, 10 mM Tris pH 7.4, absence and presence of 0.15 M NaCl, triplicate): induced leakage of liposomes
time to reach ∼80% of the maximum leakage ([23]; peptide at 1 µM, data not shown): ≤ 200 s

thrombin
antimicrobial activity in RDA, intact proteins (E. coli): inactive
